In patent US20220259593A1, “CONTROL OF MAMMALIAN GENE DOSAGE USING CRISPR” (The Regents of the University of California, priority 2019, published 2022):

Assays:
K562 CRISPRi cells [1] = test: Perturb-seq pooled growth measurement (sgRNA counts, growth phenotype γ, relative activity); format: cell-based, human; conditions: for gamma_day5 / gamma_day10: pooled growth phenotype γ of the Perturb-seq sgRNA; for gamma_day5: day 5, K562 CRISPRi cells; for gamma_day10: day 10, K562 CRISPRi cells; for relative_activity_day5: γ relative to perfectly matched sgRNA (_00) of the same gene, day 5
How it was run: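 CRISPRi K562 cells from the Perturb-seq transduced pool; 500,000-cell samples taken days two, seven and twelve post-transduction. sgRNA amplicons from genomic DNA sequenced; growth phenotypes from normalized sgRNA abundances at days seven and twelve versus day two. Relative activity assigned from day seven (five days' growth).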

K562 CRISPRi cells [2] = test: as above; format: cell-based, human; conditions: γ relative to perfectly matched sgRNA (_00) of the same gene, day 10

Row | Substance | gamma_day5 (K562 CRISPRi cells [1]) | gamma_day10 (K562 CRISPRi cells [1]) | relative_activity_day5 (K562 CRISPRi cells [1]) | relative_activity_day10 (K562 CRISPRi cells [2])
1 | ALDOA_ + _30077139.23-P1P2_14 (guide GGTCACCAGGACCGCTTCTG; listed as DNA, chemistry not fully specified) | −0.1752 | −0.1566 | 0.4246 | 0.4274
2 | ATP5E_ −_57607036.23-P1P2_00 (guide GGTGTCCAGGGGCACTCTGT; listed as DNA, chemistry not fully specified) | −0.1769 | −0.2247 | 1 | 1
3 | ATP5E_ −_57607036.23-P1P2_01 (guide GGTGTCCTGGGGCACTCTGT; listed as DNA, chemistry not fully specified) | −0.2097 | −0.2284 | 1.185 | 1.016
4 | ATP5E_ −_57607036.23-P1P2_04 (guide GGTGTCCAGGAGCACTCTGT; listed as DNA, chemistry not fully specified) | −0.09793 | −0.1204 | 0.5536 | 0.5358
5 | ATP5E_ −_57607036.23-P1P2_14 (guide GGTGTCCAGGGGCACTGTGT; listed as DNA, chemistry not fully specified) | −0.01233 | −0.03506 | 0.0697 | 0.156
6 | ATP5E_ −_57607036.23-P1P2_16 (guide GGTGTCCAGGGGCGCTCTGT; listed as DNA, chemistry not fully specified) | −0.1616 | −0.1656 | 0.9135 | 0.7368
7 | BCR_ + _23523092.23-P1P2_00 (guide GCGCGCGGGGCCCGTCTCAG; listed as DNA, chemistry not fully specified) | −0.8426 | −0.5068 | 1 | 1
8 | BCR_ + _23523092.23-P1P2_04 (guide GCGCGCGGAGCCCGTCTCAG; listed as DNA, chemistry not fully specified) | −0.7401 | −0.418 | 0.8783 | 0.8249
9 | BCR_ + _23523092.23-P1P2_05 (guide GCGCGCGGCGCCCGTCTCAG; listed as DNA, chemistry not fully specified) | −0.3535 | −0.2247 | 0.4196 | 0.4434
10 | BCR_ + _23523092.23-P1P2_07 (guide GCGCGCGGGGCTCGTCTCAG; listed as DNA, chemistry not fully specified) | −0.8707 | −0.4869 | 1.033 | 0.9607
11 | BCR_ + _23523092.23-P1P2_13 (guide GCGCGCGGGGCCCATCTCAG; listed as DNA, chemistry not fully specified) | −0.2183 | −0.1615 | 0.2591 | 0.3187
12 | BCR_ + _23523092.23-P1P2_15 (guide GCGCGCGGGGCCCGTCGCAG; listed as DNA, chemistry not fully specified) | −0.2314 | −0.1773 | 0.2747 | 0.3498
13 | CAD_ + _27440280.23-P1P2_00 (guide GGCTGGAGAGAAGCCGGGCG; listed as DNA, chemistry not fully specified) | −0.7714 | −0.684 | 1 | 1
14 | CAD_ + _27440280.23-P1P2_03 (guide GGCTGGTGAGAAGCCGGGCG; listed as DNA, chemistry not fully specified) | −0.7687 | −0.6267 | 0.9965 | 0.9162
15 | CAD_ + _27440280.23-P1P2_06 (guide GGCTGGAGAGTAGCCGGGCG; listed as DNA, chemistry not fully specified) | −0.3975 | −0.3141 | 0.5153 | 0.4592
16 | CAD_ + _27440280.23-P1P2_07 (guide GGCTGGAGCGAAGCCGGGCG; listed as DNA, chemistry not fully specified) | −0.6026 | −0.4659 | 0.7812 | 0.6811
17 | CAD_ + _27440280.23-P1P2_13 (guide GGCTGGAGAGAAGCCTGGCG; listed as DNA, chemistry not fully specified) | −0.1861 | −0.1648 | 0.2413 | 0.241

Row | Substance | gamma_day5 (K562 CRISPRi cells [1]) | gamma_day10 (K562 CRISPRi cells [1]) | relative_activity_day5 (K562 CRISPRi cells [1]) | relative_activity_day10 (K562 CRISPRi cells [2])
18 | CDC23_ −_137548987.23-P1P2_00 (guide GACAGCCACCGGGACCATGG; listed as DNA, chemistry not fully specified) | −1.176 | −0.6584 | 1 | 1
19 | CDC23_ −_137548987.23-P1P2_02 (guide GACAGCTACCGGGACCATGG; listed as DNA, chemistry not fully specified) | −1.087 | −0.5705 | 0.9238 | 0.8665
20 | CDC23_ −_137548987.23-P1P2_04 (guide GACAGCCAACGGGACCATGG; listed as DNA, chemistry not fully specified) | −0.8887 | −0.5364 | 0.7556 | 0.8148
21 | CDC23_ −_137548987.23-P1P2_08 (guide GACAGCCATCGGGACCATGG; listed as DNA, chemistry not fully specified) | −0.9559 | −0.5501 | 0.8128 | 0.8355
22 | CDC23_ −_137548987.23-P1P2_11 (guide GACAGCCACCGGGACCACGG; listed as DNA, chemistry not fully specified) | −0.2745 | −0.2018 | 0.2334 | 0.3065
23 | COX11_ + _53045977.23-P1P2_00 (guide GGCTCTGGCGTCCTGGATGG; listed as DNA, chemistry not fully specified) | −0.1817 | −0.2988 | 1 | 1
24 | COX11_ + _53045977.23-P1P2_03 (guide GGCTCTGTCGTCCTGGATGG; listed as DNA, chemistry not fully specified) | −0.1719 | −0.2875 | 0.9463 | 0.9622
25 | COX11_ + _53045977.23-P1P2_04 (guide GGCTCTGGCGCCCTGGATGG; listed as DNA, chemistry not fully specified) | −0.1495 | −0.2574 | 0.8227 | 0.8616
26 | COX11_ + _53045977.23-P1P2_05 (guide GGCTCTGGCGTCTTGGATGG; listed as DNA, chemistry not fully specified) | −0.0555 | −0.108 | 0.3055 | 0.3613
27 | COX11_ + _53045977.23-P1P2_10 (guide GGCTCTGGCGTCCCGGATGG; listed as DNA, chemistry not fully specified) | −0.1247 | −0.1116 | 0.6866 | 0.3734
28 | DBR1_ + _137893744.23-P1P2_00 (guide GTTTGCAGGAGTCTACACCC; listed as DNA, chemistry not fully specified) | −0.4556 | −0.4893 | 1 | 1
29 | DBR1_ + _137893744.23-P1P2_01 (guide GATTGCAGGAGTCTACACCC; listed as DNA, chemistry not fully specified) | −0.5119 | −0.5474 | 1.124 | 1.119
30 | DBR1_ + _137893744.23-P1P2_05 (guide GTTTGCAGGAGTGTACACCC; listed as DNA, chemistry not fully specified) | −0.3102 | −0.3094 | 0.6809 | 0.6323
31 | DBR1_ + _137893744.23-P1P2_07 (guide GTTTGCAGGGGTCTACACCC; listed as DNA, chemistry not fully specified) | −0.5167 | −0.468 | 1.134 | 0.9563
32 | DBR1_ + _137893744.23-P1P2_08 (guide GTTTGCAGTAGTCTACACCC; listed as DNA, chemistry not fully specified) | −0.03529 | −0.05261 | 0.07746 | 0.1075
33 | DUT_ + _48624411.23-P1P2_00 (guide GCGAGCGAGGAGACCACCGG; listed as DNA, chemistry not fully specified) | −0.7929 | −0.6457 | 1 | 1
